Target: T1, recombinant human GR (Homo sapiens, UniProt P04150)
T1 construct: purchased Panvera/Invitrogen P2812 (kit P2893)
T1 sequence (P04150 1-777): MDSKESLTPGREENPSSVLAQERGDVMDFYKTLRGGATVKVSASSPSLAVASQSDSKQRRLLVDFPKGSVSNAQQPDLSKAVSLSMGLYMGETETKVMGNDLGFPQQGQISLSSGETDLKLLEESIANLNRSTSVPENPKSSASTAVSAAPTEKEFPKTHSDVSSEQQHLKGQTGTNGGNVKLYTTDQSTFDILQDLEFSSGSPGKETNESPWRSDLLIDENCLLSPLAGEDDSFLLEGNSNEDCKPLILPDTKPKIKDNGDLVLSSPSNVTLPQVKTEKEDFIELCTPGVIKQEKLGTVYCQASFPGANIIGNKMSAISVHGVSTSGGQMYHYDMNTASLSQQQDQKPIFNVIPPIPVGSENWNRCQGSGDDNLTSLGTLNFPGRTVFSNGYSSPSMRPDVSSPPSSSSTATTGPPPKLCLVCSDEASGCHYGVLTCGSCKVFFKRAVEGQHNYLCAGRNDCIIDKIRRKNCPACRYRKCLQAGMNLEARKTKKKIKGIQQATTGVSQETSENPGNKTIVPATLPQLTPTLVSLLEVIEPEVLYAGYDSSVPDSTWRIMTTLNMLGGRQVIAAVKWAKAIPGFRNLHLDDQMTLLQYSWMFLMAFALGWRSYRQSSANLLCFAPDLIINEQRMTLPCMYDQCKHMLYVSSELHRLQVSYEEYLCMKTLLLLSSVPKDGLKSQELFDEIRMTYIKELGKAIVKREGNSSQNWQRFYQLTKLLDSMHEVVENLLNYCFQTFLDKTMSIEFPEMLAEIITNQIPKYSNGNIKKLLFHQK
Experiment: Human Glucocorticoid Receptor (GR) Assay, fluorescence polarization (GRhuFL_FP_v2)
Type: binding
Conditions: GS Red tracer, 2 hours at room temperature, 100% control 10 μM Dexamethasone
Experimental: Human Glucocorticoid Receptor (GR) Assay
The assay is based on a commercial kit from Panvera/Invitrogen (Part number P2893). The assay technology is fluorescence polarization. […] The GR and Stabilizing Peptide reagents are stored at −70° C. while the GS Red is stored at −20° C. Also included in the kit are 1M DTT (Panvera, Part number P2325, stored at −20° C.) and GR Screening buffer 10× (Panvera, Part number P2814, stored at −70° C. initially but once thawed stored at room temperature). Avoid repeated freeze/thaws for all reagents. The GR Screening buffer 10× comprises 100 mM potassium phosphate, 200 mM sodium molybdate, 1 mM EDTA and 20% DMSO.
0% control was 100% DMSO and 100% control was 10 μM Dexamethasone. Background solution (8 μL; assay buffer 10×, Stabilizing Peptide, DTT and ice cold MQ water) was added to the background wells. GS Red solution (7 μL; assay buffer 10×, Stabilizing Peptide, DTT, GS Red and ice cold water) was added to all wells except background wells. GR solution (7 μL; assay buffer 10×, Stabilizing Peptide, DTT, GR and ice cold water) was added to all wells. The plate was sealed and incubated in a dark at room temperature for 2 hours.

Row | IC50 [nM] | SMILES
1 | 3.6 | C[C@H](NS(=O)(=O)C1CC1)[C@H](Oc1ccc2c(cnn2-c2ccc(F)cc2)c1)c1cnc2ccccc2c1 [Example 42, N-((1R,2S)-1-(1-(4-fluorophenyl)-1H-indazol-5-yloxy)-1-(quinolin-3-yl)propan-2-yl)cyclopropanesulfonamide]
2 | 2.3 | C[C@H](NS(=O)(=O)C1CC1)[C@H](Oc1ccc2c(cnn2-c2ccc(F)cc2)c1)c1ccc2c(c1)OCCO2 [Example 43, N-((1R,2S)-1-(2,3-dihydrobenzo[b][1,4]dioxin-6-yl)-1-(1-(4-fluorophenyl)-1H-indazol-5-yloxy)propan-2-yl)cyclopropanesulfonamide]
